How the values were obtained:
[1] = system: OHSS rats; test: Vascular permeability (Evans Blue) in OHSS rats treated with bromocriptine (Example 1); type: in vivo, Wistar rats; settings: VP 48 h after hCG
Procedure: Drug Treatment. Immature female Wistar rats were employed. In the OHSS group (n=8), Pregnant Mare's Serum Gonadotropin (PMSG) was administered at 10 IU/day for 4 days, followed by hCG (30 IU) on the fifth day. In the mild (i.e., ovarian stimulation) group (n=8), 10 IU of PMSG was administered followed 2 days later by administration of 10 IU of hCG. In the control group, 1 IU of PMSG was administered followed by 1 IU of hCG 48 hrs later. Vascular Permeability Measurement. Vascular permeability was measured 48 hours following hCG administration. 0.2 ml of 5 mM Evans Blue stain was injected via the femoral vein. After 30 minutes, the peritoneal cavity was irrigated with saline. Light absorption was measured in the recovered fluid at 595 nm and the vascular permeability was expressed as μg Evans blue/100 g body weight. In a second series of experiments, varying doses of bromocriptine were administered in a group of rats induced to develop OHSS with 40 IU of PMSG followed by 30 IU of hCG. 1.6, 4.0, 10.0 and 25.0 mg/kg of bromocriptine were intraperitoneally administered on the day of hCG administration and 24 hours later. VP was measured 48 hours following hCG administration.

[2] = system: patients with treatment-resistant OHSS; settings: oral docarpamine, 27 patients; cited from earlier work

With CC(C)C[C@H]1C(=O)N2CCC[C@H]2[C@]2(O)O[C@](NC(=O)[C@@H]3C=C4c5cccc6[nH]c(Br)c(c56)C[C@H]4N(C)C3)(C(C)C)C(=O)N12 [bromocriptine] the vascular permeability ([1]; 1.6 mg bromocriptine i.p. on day of hCG and 24 h later, p=0.04) was 15.3±3.3 μg Evans Blue/100 g body weight, the vascular permeability ([1]; 4 mg bromocriptine i.p. on day of hCG and 24 h later, p=0.04) was 14.2±2.2 μg Evans Blue/100 g body weight and the vascular permeability ([1]; 10 mg bromocriptine i.p. on day of hCG and 24 h later, p=0.009) was 10.1±2.6 μg Evans Blue/100 g body weight. For the same compound, the vascular permeability ([1]; 25 mg bromocriptine i.p. on day of hCG and 24 h later, p=0.001) was 8.0±1.9 μg Evans Blue/100 g body weight.

In the case of CCOC(=O)Oc1ccc(CCNC(=O)[C@H](CCSC)NC(C)=O)cc1OC(=O)OCC [docarpamine], the ascites [2] is given as “ascites was decreased” and the diuresis [2] is given as “Diuresis was increased in some women”.

From patent publication US8334298B2, “Treatment or prevention of ovarian hyperstimulation syndrome (OHSS) using a dopamine agonist” (Ferring International Center S.A., priority 2005, dated 2012)
